Experimental data: publication PMC10487843, “Evaluation of Anticancer and Anti-Inflammatory Activities of Some Synthetic Rearranged Abietanes” (International Journal of Molecular Sciences, 2023)
Values after ≈ are worked out from the molar mass of the structure shown.

Legend:
[1] = tested on: HT29 cells; experiment: Annexin V-FITC/PI flow cytometry apoptosis analysis; type: cell-based, human; settings: HT29, 72 h; for total apoptosis, % of cell population: control 9%
Description: To further investigate the potential mechanisms underlying the cytotoxic and cytostatic effects of compounds 5 and 13 on HT29 cells, Annexin V–FITC/PI double staining along with […] cell sorter (FACS) cytometry analysis was employed for determinate apoptosis induction. This assay allowed for the distinction of different cell populations, including normal cells (Annexin V− PI−), early apoptotic cells (Annexin V+ PI−), late apoptotic cells (Annexin V+ PI+), and necrotic cells (Annexin V− PI+).
These assays on the HT29 cell line were conducted 72 h after treatment with the selected rearranged abietanes at their corresponding IC50 and IC80 concentrations.
Flow cytometry was used to detect annexin V-FICT and PI double staining, to quantify the pro-apoptotic impact of compounds 5 and 13. Apoptosis was assessed through flow cytometry using a FACScan flow cytometer (Coulter Corporation, Hialeah, FL, USA). In this assay, 5 × 10^4 HT29 cells were plated in 24-well plates with 1.5 mL of medium and incubated for 24 h. The cells were then treated with the selected compounds in triplicate for 24, 48, and 72 h at their corresponding IC50 and IC80 concentrations. The cells were harvested and resuspended in a binding buffer (10 mM HEPES/NaOH with pH 7.4, 140 mM NaCl, and 2.5 mM CaCl2). Subsequently, Annexin V-FITC conjugate (1 µg/mL) was added and incubated for 15 min in the dark at room temperature. The cells were stained with 5 µL of 1 mg/mL PI solution before analysis. Approximately 10 × 10^3 cells were analyzed in each experiment; the experiments were performed twice, each with three replications per assay.

[2] = tested on: murine melanoma (B16–F10); experiment: MTT cell viability assay, B16-F10; type: cell-based; settings: Mus musculus, 72 h; for IC80: 80% growth inhibition
Description: In this study, we employed the MTT (3-(4,5-dimethyl thiazol-2-yl)-2,5-diphenyltetrazolium bromide) colorimetric assay to evaluate the cytotoxic activity of selected abietanes (compounds 5, 7, 13, 17, and 19) against three tumor cell lines: human colon adenocarcinoma (HT29), human hepatocarcinoma (HepG2), and murine melanoma (B16–F10). The MTT assay relied on the conversion of MTT to formazan by viable cells, with the formazan concentration proportional to the number of viable cells. The concentrations required for 50 and 80% growth inhibition (IC50 and IC80) were determined for each compound.
The human colorectal adenocarcinoma cell line HT29 (ECACC no. 9172201; ATCC no. HTB-38), the human hepatocarcinoma cell line HepG2 (ECACC no. 85011430), the mouse melanoma cells B16–F10 (ATCC no. CRL-6475), and the murine monocyte/macrophage like RAW 264.7 cell line (ATCC no, TIB-71) were obtained from the cell bank of the University of Granada, Spain. The tumor cell lines were cultured in DMEM (Dulbecco’s modified Eagle’s medium) supplemented with 2 mM glutamine, 10% heat-inactivated FCS (fetal calf serum), and 50 μg/mL of gentamicin (for all cancer cell lines). The RAW 264.7 cell line was cultured in RPMI1640 medium, supplemented with 2 mM glutamine, 10% heat-inactivated FCS, and 50 μg/mL of gentamicin. All cell lines were incubated at 37 °C, in an atmosphere of 5% CO2 and 95% humidity. The culture media were changed every 48 h, and the confluent cultures were separated with a trypsin solution (0.25% EDTA). In all experiments, monolayer cells were grown to 80–90% confluence in sterile cell culture flasks.
The effects of the compounds on the cell viability were established using the MTT method (Sigma, St. Louis, MO, USA). The cytotoxicity of the compounds was assessed by measuring the absorbance of MTT dye staining of metabolically competent cells. The cells were cultivated in 96-well plates at 6.0 × 10^3 cells/mL for the HT29 and RAW 264.7 cell lines, at 5.0 × 10^3 cells/mL for B16–F10 cells, and 15.0 × 10^3 cells/mL for the HepG2 cell line, with a final volume of 200 μL per well being incubated with the different products (0–100 μg/mL). After 72 h, 100 μL of MTT solution (0.5 mg/mL) in 50% of PBS and 50% of the medium was added to each well. Following incubation for 1.5 h, formazan was resuspended in 100 μL of DMSO, and each concentration was tested in triplicate. The cell viability relative to the untreated control cells was determined by measuring the absorbance at 570 nm using an ELISA plate reader (Tecan Sunrise MR20–301, TECAN, Grödig, Austria).

[3] = tested on: HT29 cells; experiment: Hoechst-stained fluorescence microscopy (nuclear morphology); type: cell-based, human; settings: HT29, 72 h
Description: To assess the apoptosis induction capacity of compounds 5 and 13 on HT29 cells, we performed Hoechst […] nuclear staining, a well-established method for visualizing the morphological changes associated with apoptosis. Two principal morphological characteristics can be observed in the apoptosis process, chromatin condensation and nuclei fragmentation. Hoechst is a dye capable of penetrating cells and binding to double-stranded DNA, emitting blue light that can be visualized by using fluorescence microscopy.
The morphological changes were analyzed using Hoechst-stained fluorescence microscopy. For the analysis, 15 × 10^4 HT29 cells were plated on a coverslip within a 24-well plate. […] The cells were washed twice with PBS, treated with cold MeOH for 3 min, washed again with PBS, and then incubated in 500 μL of Hoechst solution (50 ng/mL) in PBS for 15 min in the dark. Finally, the samples were visualized through fluorescent microscopy (DMRB, Leica Microsystems, Wetzlar, Germany) under a DAPI filter.

[4] = tested on: HT29 cells; experiment: Mitochondrial membrane potential by flow cytometry (Rh123/DHR); type: cell-based, human; settings: HT29, 72 h
Description: Apoptotic effects induced by anticancer agents can be mediated through two major pathways: intrinsic and extrinsic apoptotic pathways. The intrinsic pathway involves the disruption of the mitochondrial membrane and changes in the mitochondrial membrane potential (MMP), while the extrinsic pathway leads to apoptosis without initial MMP alterations. […] Further investigations are necessary to elucidate the detailed molecular mechanisms underlying their apoptotic effect.
We analyzed the electrochemical gradient across the mitochondrial membrane via analytical flow cytometry, using dihydrorhodamine (DHR). A total of 5 × 10^4 HT29 cells were plated in 24-well plates for this assay. […] Next, the medium was replaced by adding fresh solution with DHR to a final concentration of 5 μg/mL. The cells were incubated at 37 °C for 1 h, washed, and resuspended in PBS with 5 μg/mL of PI. The fluorescence intensity was measured using a FACScan flow cytometer (fluorescence-activated cell sorter). The experiments were performed two times, each with three replications per assay.

IC50 [2] [µg/mL] | SMILES | early apoptosis, % of cell population ([1]; IC50 concentration) [%] | late apoptosis, % of cell population ([1]; IC50 concentration) [%] | percentage of necrotic cells ([1]; IC50 concentration, control 3%) [%] | total apoptosis, % of cell population ([1]; IC50 concentration) [%] | early apoptosis, % of cell population ([1]; IC80 concentration) [%] | late apoptosis, % of cell population ([1]; IC80 concentration) [%] | total apoptosis, % of cell population ([1]; IC80 concentration) [%] | IC80 [2] [µg/mL] | nuclear morphology, Hoechst staining ([3]; IC50 concentration) | nuclear morphology, Hoechst staining ([3]; IC80 concentration) | decrease in positive Rh123-stained cells with regard to untreated control ([4]; IC50 concentration) | decrease in positive Rh123-stained cells with regard to untreated control ([4]; IC80 concentration) [%]
13.6 ± 0.14 (≈ 43.9 µM) | CC(C)C1=CC2=C(C(=O)C1=O)C1=CC(=O)CC(C)(C)[C@@]1(C)C=C2 [Compound 5, Pygmaeocin B] | 5 | 17 | 15 | 22 | 12 | 23 | 35 | 14.04 ± 0.08 (≈ 45.2 µM) | loss of normal nuclear architecture and chromatin condensation | formation of pyknotic or contracted nuclei followed by fragmentation into apoptotic bodies | 54% | 61
4.14 ± 0.25 (≈ 13.8 µM) | CC(C)C1=CC2=C(C(=O)C1=O)[C@@]1(C)CCCC(C)(C)[C@@H]1CC2 [Compound 13] | 6 | 12 |  | 18 | 7 | 14 | 21 | 5.41 ± 0.25 (≈ 18 µM) | loss of normal nuclear architecture and chromatin condensation | formation of pyknotic or contracted nuclei followed by fragmentation into apoptotic bodies | around 40% | 57
